Laboratory results published in patent US8586557B2, “Therapy of p53 mutant colon adenocarcinoma, breast cancer and lung cancer” (Peter MacCallum Cancer Institute, priority 2009, dated 2013).

Experiments:
Assay type in all cases: cell-based, human
p53 null H1299 cells = assay: Cell cycle analysis and flow cytometry
Description: (§1) To ascertain the influence of PML levels on the proliferation of HT29 human cancer cells, they were subjected initially to metabolic evaluation using an MTT assay and cell cycle analysis using BrdUrd incorporation. […] This reduction was consistent with the reduced growth rate, but cannot explain the marked difference in cell numbers. It is important to clarify that because the MTT assay involved plating cells of equal number 24 hours in advance of each assay time point, there was continual selection for live cells, which is likely to have masked the accrued effects detected with longer-term plating for the flow cytometric analysis and the colony assay. […] To further substantiate the mutant p53 dependence of cell cycle perturbation induced through PML knockdown, H1299 cells either without, or bearing mutant p53^175, were subjected to cell cycle analysis and flow cytometry (FIG. 10).

[1] = system: H1299 cells expressing exogenous mutant p53^175; assay: Cell cycle analysis and flow cytometry; settings: H1299 bearing mutant p53^175
Description: as §1

SKBR3 cells = assay: Trypan blue dye exclusion after Adriamycin exposure; settings: SKBR3, Adriamycin 0.5 μg/mL 24 h
Description: Expression of certain p53 mutants confers cells with some resistance to genotoxic stress (Strano et al.). It was therefore important to define whether PML contributes to this biological effect of mutant p53. To this end PML expression was down regulated in SKBR3 cells and cells were exposed to 0.5 μg/ml Adriamycin for 24 h. The effect on cell survival was determined by Trypan blue dye exclusion. Down regulation of PML reduced the numbers of live cells (FIG. 6A(i)), whereas no significant increase in cell death was identified (FIG. 6A(ii)).

Cyclin B2 promoter = assay: Luciferase reporter assay pCCAAT-B2LUC in SKBR3; settings: SKBR3, adriamycin 0.5 μg/ml
Description: (§2) For LacZi-SKBR3 and PML3i-SKBR3, cells (1.5×10^5) were transiently transfected with expression plasmids, reporter constructs, and 0.51 μg of CMV β-galactosidase plasmid (pcDNA3-β-gal vector) as an internal control for transfection efficiency. Precipitates were removed and cells were treated with 0.5 μg/ml ADR for 48 hr. Luciferase activity was assayed on whole-cell extract, as described (Manni et al.). The luciferase values were normalized to β-galactosidase activity and protein content.
(§3) In addition, the effect of PML down-regulation on the transcription of the mutant p53 targets cyclin B2 and Cdc25C, in response to genotoxic stress, was examined in the endogenous mutant p53^175 background of SKBR3 cells. SKBR3 cells were transfected with either PML3i (SEQ ID No: 3) or shp53 (GACTCCAGTGGTAATCTA; SEQ ID No: 10), and luciferase reporter constructs for either Cyclin B2 or Cdc25c. After 24 hours, the cells were exposed to adriamycin (0.5 μg/ml). Down regulation of p53 suppressed the induction of both promoters (FIG. 6B(i) and (ii), respectively). […] The suppression of endogenous cyclin B2 and Cdc25C in response to either p53 or PML down-regulation, under the influence of Adriamycin, was also confirmed at the RNA level by RT-PCR (FIG. 6C).

Cdc25C promoter = assay: Luciferase reporter assay pCCAAT-cdc25CLUC in SKBR3; settings: SKBR3, adriamycin 0.5 μg/ml
Description: as §2, §3

cyclin B2 RNA = assay: RT-PCR of endogenous mutant p53 target in SKBR3; settings: SKBR3, under Adriamycin
Excerpt: (§4) Cellular RNA was isolated by Tri-Reagent (MRC Inc.; Cincinnati, Ohio, USA) using the manufacture's instructions, DNA was removed from the samples using DNase treatment (DNA-free kit, Ambion Applied Biosystems; Foster City, Calif., USA), cDNA was synthesized from the purified RNA using M-MLV Reveres Transcription kit (Promega, Madison, Wis., USA). Primers for ribosomal 18S were forward: […] (SEQ ID No: 6); and reverse: […] (SEQ ID No: 7). Primers for PML were forward: CGCCCTGGATAACGTCTTT (SEQ ID No: 8) and reverse: ACTGTGGCTGCTGTCAAGG (SEQ ID No: 9).
as §3

Cdc25C RNA = assay: RT-PCR of endogenous mutant p53 target in SKBR3; settings: SKBR3, under Adriamycin
Excerpt: as §4, §3

[2] = system: p53 Thr18 phosphorylation; assay: Immunoblot of IR-induced p53 Thr18 phosphorylation in NB4 cells; settings: As2O3 1 μM 4 h, γ-IR 5Gy
Description: (§5) Western blot analysis and immunoprecipitation assays were carried out as previously described (Louria-Hayon et al.). The antibodies used in this study were: anti-human p53 monoclonal antibodies PAb1801 and D01, anti-phospho-p53 Thr^18 polyclonal antibody (Saito et al.), anti-phospho-p53 Ser^20 polyclonal antibody (Cell Signaling Technology, Beverly, Mass., USA); anti-PML monoclonal antibody (clone PML-97; Sigma Chemical Co., St Louis, Mo., USA), anti-GFP (Roche Applied Science, Mannheim, Germany), HRP-conjugated goat anti-mouse IgG, Envision peroxidase anti-mouse or anti-rabbit (Dako Corp., Glostrup, Denmark). The antibodies anti-p53 goat polyclonal antibody (FL-393, AC), anti-p53 rabbit polyclonal antibody (FL-393, FC) and anti-PML polyclonal rabbit antibody ((H-238) sc-5621) were from Santa Cruz Biotechnology, Santa Cruz, Calif., USA.
The inventors have previously shown that PML facilitates the phosphorylation of wt p53 at Ser^20 by check-point kinase 2 (Chk2; Louria-Hayon et al.) and Thr^18 by CK1 (Alsheich-Bartok et al.). These observations raised the surprising possibility that PML may also facilitate the phosphorylation of mutant p53.

HT29 cells [3] = assay: Colony formation assay; settings: HT29, doxycycline-induced PML knockdown for 21 d
Description: (§6) Cancer cell lines were plated (700 per well) in 5 cm diameter dishes in the absence or presence of tetracycline (0.2 μg/ml added every second day) for 21 days. At harvest the cells were fixed in ethanol and stained in 0.1% crystal violet.

SW480 cells [4] = assay: Colony formation assay; settings: SW840 as printed, doxycycline-induced PML knockdown for 21 d
Description: as §6

HT29 cells [5] = assay: Cell cycle analysis by BrdUrd incorporation; settings: for relative number of cells cycling through the S-phase: versus parental line
Description: Cells were plated 2×10^6/10 cm dish and allowed to recover 24 h. BRDU was incorporated (20 μM, 4 h), prior to cell harvest with trypsin-EDTA and fixation in 70% methanol, −20° C. overnight. BRDU detection was undertaken subsequent to sequential rehydration in HCl(2N)/Triton-X(0.5%) then incubation in Boric acid (0.1M), anti-DRDU FITC antibody (BD Biosciences; San Jose, Calif., USA) in PBS/BSA(1%)/Triton-X(0.5%). DNA was labeled using propidium iodide 0.5 mg/ml and incorporation was analyzed using the FACs calibur (BD Biosciences; San Jose, Calif., USA)

PML = assay: Western blot of PML knock-down by shRNA
Excerpt: Cell lines in which PML was inducibly knocked-down were generated by co-infection with a lentivirus (pLVTHM) expressing the short hairpin RNA (shRNA) PML target sequence GACCAACAACATCTTCTGC (shPML1; SEQ ID No: 1) or AGATGCAGCTGTATCCAAG (shPML2; SEQ ID No: 2; Tavalai et al.) and a lentivirus expressing a tetracycline repressor (pLV-Ttrkrab-Red). Control cell lines with shLacZ and relevant wobble shPML control sequences GACCAACAATATATTCTGC (w-shPML1; SEQ ID No: 4) and AGATGCAGCTGTATCCAAG (w-shPML2; SEQ ID No: 5) were also generated under the control of a tetracycline repressor. PMLi to target sequence GAGTCGGCCGACTTCTGGT (SEQ ID No: 3; Bruno et al), referred to subsequently as PML3i was transfected into SKBR3 cells using Lipofectamine™ 2000 (Invitrogen Corporation, Carlsbad, Calif. 92008 USA), according to the manufacturer's instructions.
as §5

HT29 cells [6] = assay: MTT metabolic assay; settings: HT29, 3, 4 and 11 days of doxycycline exposure, compared with control w-shPML1
Description: Cells either untreated or treated with doxycyclin (0.2 μg/ml) to knock down PML were plated 4000 per well in a 96 well plate and allowed to recover for 24 h. 3-(4,5-Dimethylthiazolyl-2)-2,5-diphenyltetrazolium bromide (MTT, […] final concentration) was added to the wells and the experiment was terminated after an additional 4 h incubation, by aspiration of the liquid and addition of 200 μl of DMSO. The absorbance was read at 540 nm, relative to a reference wavelength of 630 nm (Mosmann et al.).

HT29 cells [7] = assay: Flow cytometry of live/dead cells by propidium iodide exclusion
Description: (§7) Cells were cultured in the absence or presence of doxycyclin (0.2 μg/ml added every second day) for three days then 25,000 cells were plated (with doxycyclin maintainance in culture for continued shRNA induction) and harvested at selected time points. Cells adherent to the plate were released with trypsin-EDTA and combined with those suspended in the culture supernatant prior to flow cytometric analysis of live cell numbers, as discriminated by propidium iodide exclusion using a cell sorter (FACSCalibur) harnessed to CellQuest software (BD Biosciences; San Jose, Calif., USA).

SW480 cells [8] = assay: as above
Description: as §7

PML transcript = assay: RT-PCR of PML transcript after shRNA knock-down
Excerpt: as §4

[9] = HT29, 3 days of doxycyclin induction
[10] = HT29, 8 days of continuous PML knock down

Substance | cell cycle profile (p53 null H1299 cells) | G2 [1] | Cyclin B2 promoter activity (luciferase) (Cyclin B2 promoter) | Cdc25C promoter activity (luciferase) (Cdc25C promoter) | endogenous cyclin B2 RNA level (cyclin B2 RNA) | endogenous Cdc25C RNA level (Cdc25C RNA) | relative number of cells cycling through the S-phase (HT29 cells [5]; [9]) | expression of major PML isoforms (PML; HT29, doxycycline 72 h) | expression of major PML isoforms (PML; SW480, doxycycline 72 h) | further results
PML3i: siRNA to PML target sequence GAGTCGGCCGACTTCTGGT (Bruno et al), transfected with Lipofectamine 2000 (listed as DNA, chemistry not given here) | not disrupted | striking increase | reduced | reduced | suppression | suppression | – | – | – | cell death (SKBR3 cells): without significant cell death; live cell numbers (SKBR3 cells): slightly reduced
arsenic trioxide [As2O3] | – | – | – | – | – | – | – | – | – | IR-induced phosphorylation of p53 on Thr18 [2]: facilitated
shPML1: lentivirus-expressed, doxycycline-inducible short hairpin RNA to PML target sequence GACCAACAACATCTTCTGC | – | – | – | – | – | – | comparable | reduced | reduced | inhibition of colony formation (HT29 cells [3]): > 90%; inhibition of colony formation (SW480 cells [4]): > 70%; level of G1 (HT29 cells [5]; [9]): slightly higher; level of G2 (HT29 cells [5]; [9]): lower; BrdUrd incorporation into the S-phase (HT29 cells [5]; [10]): reduced markedly; G1 (HT29 cells [5]; [10]): increases; G2 (HT29 cells [5]; [10]): increases; rate of metabolism (MTT) (HT29 cells [6]): slightly lower; cell death (HT29 cells [7]; HT29, 7 or 8 days of PML down regulation): modest increase; number of live cells (HT29 cells [7]; HT29, 7 or 8 days of doxycyclin exposure): significantly reduced; cell death (SW480 cells [8]; SW480, 7 or 8 days of PML down regulation): modest increase; number of live cells (SW480 cells [8]; SW480, 7 or 8 days of doxycyclin exposure): significantly reduced; PML transcript level (PML transcript; HT29, RT-PCR normalized to 18 s): reduction; PML transcript level (PML transcript; SW480, RT-PCR normalized to 18 s): reduction
shp53: RNA interference construct to p53, GACTCCAGTGGTAATCTA [reference compound] | not disrupted | striking increase | suppressed | suppressed | suppression | suppression | – | – | – | –
w-shPML1: wobble shPML control sequence GACCAACAATATATTCTGC [reference compound] | – | – | – | – | – | – | comparable | failed to reduce PML levels | failed to reduce PML levels | –
